In patent US20060067981A1, “Contact lens with improved biocidal activity and related methods and materials” (Bausch & Lomb Incorporated, priority 2004, published 2006):
Values joined by “and” are separate entries in the source; they are usually repeats but may differ in a detail not shown here. Equal entries are not always repeated.

Key:
Assay type in all cases: physicochemical
[1] = Uptake of domaphen bromide by lens in borate buffer system; conditions: for Inhibition % in 25 ppm Domiphen Bromide / Inhibition % in 50 ppm Domiphen Bromide / Inhibition % in 100 ppm Domiphen Bromide: Borate buffer, % remaining in solution; for Inhibition % in 25 ppm Domiphen Bromide: 25 ppm (Solution 13); for Inhibition % in 50 ppm Domiphen Bromide: 50 ppm (Solution 14); for Inhibition % in 100 ppm Domiphen Bromide: 100 ppm (Solution 15)
Procedure: Three solutions made according to the formulation of Example 1 were made with a 25 ppm (Solution 13), 50 ppm (Solution 14) and 100 ppm (Solution 15) domaphen bromide concentrations. Two 3 ml portions of Solutions 13-15 in solution were placed in six separate vials. A total of six Sureview™ lens (Johnson & Johnson, New Brunswick, N.J.) were placed in the vials—one lens per each vial. The vials remained in the lens for a first 24 hour soaking cycle. After 24 hours, the lenses were removed. The amount of domaphen bromide remaining in each of the 3 ml solutions is measured by ultraviolet visible (UV/VIS) spectrometer analytical method. Inhibition % is calculated to reflect the amount of domaphen bromide that remains in the solution expressed as a percentage of the total amount of domaphen bromide. Inhibition % is recorded in Table 6 corresponding to a soaking time of 24 hours. This completed the first test cycle. The lenses removed during the first soaking cycle were placed in six fresh vials containing two 3 ml portions of Solutions 13-15 to commence the second 24 hour soaking cycle. Care was taken to make sure that the solution the lens is soaked in during the second cycle is identical to the solution in the first cycle. Thus, each pair of lenses is soaked in concentrations of Solutions 13-15 identical to the concentration that the lens was soaked in during the first soak cycle. After 24 hours, the lenses are removed. The solutions are tested to determine the concentration domaphen bromide in solution. The inhibition % is calculated and recorded in Table 6 corresponding to 48 hour soak time. The lenses were again soaked for a third and fourth soak cycle. The domaphen bromide inhibition % was recorded after the third and fourth soak cycle and recorded in Table 6 corresponding to the 72 hour and 96 hour soak times, respectively.

[2] = Uptake of domaphen bromide by lens in tris(hydroxymethyl)aminomethane buffer system
Procedure: Three solutions made according to the formulation of Example 1 were made with a 25 ppm (Solution 4), 50 ppm (Solution 5) and 100 ppm (Solution 6) domaphen bromide concentrations, except the borate buffer system was replaced with an equivalent amount of a tris(hydroxymethyl)aminomethane buffer system and the water amount was adjusted accordingly. The term “equivalent amount” means the amount required to adjust the pH to the desired pH as another buffer. Two 3 ml portions of Solutions 4-6 in solution were placed in six separate vials. A total of six Sureview™ lens (Johnson & Johnson, New Brunswick, N.J.) were placed in the vials—one lens per each vial. The vials remained in the lens for a first 24 hour soaking cycle. After 24 hours, the lenses were removed. The amount of domaphen bromide remaining in each of the 3 ml solutions is measured by ultraviolet visible (UV/VIS) spectrometer analytical method. Inhibition % is calculated to reflect the amount of domaphen bromide that remains in the solution expressed as a percentage of the total amount of domaphen bromide. Inhibition % is recorded in Table 3 corresponding to a soaking time of 24 hours. This completed first test cycle. The lenses removed during the first soaking cycle were placed in six fresh vials containing two 3 ml portions of solutions 4-6 to commence the second 24 hour soaking cycle. Care was taken to make sure that the solution the lens is soaked in during the second cycle is identical to the solution in the first cycle. Thus, each pair of lenses is soaked in identical concentrations of Solutions 4-6. After 24 hours, the lenses are removed. The solutions are tested to determine the concentration domaphen bromide in solution. The inhibition % is calculated and recorded in Table 3 corresponding to 48 hour soak time. The lenses were again soaked for a third and fourth soak cycle. The domaphen bromide inhibition % was recorded after the third and fourth soak-cycle and recorded in Table 3 corresponding to the 72 hour and 96 hour soak times, respectively.

[3] = Uptake of domaphen bromide by lens in phosphate buffer system; conditions: % remaining in solution; for Inhibition % in 25 ppm Domiphen Bromide: 25 ppm (Solution 7); for Inhibition % in 50 ppm Domiphen Bromide: 50 ppm (Solution 8); for Inhibition % in 100 ppm Domiphen Bromide: 100 ppm (Solution 9)
Procedure: Three solutions made according to the formulation of Example 1 were made with a 25 ppm (Solution 7), 50 ppm (Solution 8) and 100 ppm (Solution 9) domaphen bromide concentrations, except the borate buffer system was replaced with an equivalent amount of a phosphate buffer system and the amount of water was adjusted accordingly. Two 3 ml portions of Solutions 7-9 in solution were placed in six separate vials. A total of six Sureview™ lens (Johnson & Johnson, New Brunswick, N.J.) were placed in the vials—one lens per each vial. The vials remained in the lens for a first 24 hour soaking cycle. After 24 hours, the lenses were removed. The amount of domaphen bromide remaining in each of the 3 ml solutions is measured by ultraviolet visible (UV/VIS) spectrometer analytical method. Inhibition % is calculated to reflect the amount of domaphen bromide that remains in the solution expressed as a percentage of the total amount of domaphen bromide. Inhibition % is recorded in Table 4 corresponding to a soaking time of 24 hours. This completed the first test cycle. The lenses removed during the first soaking cycle were placed in six fresh vials containing two 3 ml portions of solutions 7-9 to commence the second 24 hour soaking cycle. Care was taken to make sure that the solution the lens is soaked in during the second cycle is identical to the solution in the first cycle. Thus, each pair of lenses is soaked in concentrations of Solutions 7-9 identical to the concentration that the lens was soaked in during the first soak cycle. After 24 hours, the lenses are removed. The solutions are tested to determine the concentration domaphen bromide in solution. The inhibition % is calculated and recorded in Table 4 corresponding to 48 hour soak time. The lenses were again soaked for a third and fourth soak cycle. The domaphen bromide inhibition % was recorded after the third and fourth soak-cycle and recorded in Table 4 corresponding to the 72 hour and 96 hour soak times, respectively.

[4] = Uptake of domaphen bromide by lens in citrate buffer system
Procedure: Three solutions made according to the formulation of Example 1 were made with a 25 ppm (Solution 10), 50 ppm (Solution 11) and 100 ppm (Solution 12) domaphen bromide concentrations, except the borate buffer system was replaced with an equivalent amount of a citrate buffer system and the water amount was adjusted accordingly. Two 3 ml portions of Solutions 10-12 in solution were placed in six separate vials. A total of six Sureview™ lens (Johnson & Johnson, New Brunswick, N.J.) were placed in the vials—one lens per each vial. The vials remained in the lens for a first 24 hour soaking cycle. After 24 hours, the lenses were removed. The amount of domaphen bromide remaining in each of the 3 ml solutions is measured by ultraviolet visible (UV/VIS) spectrometer analytical method. Inhibition % is calculated to reflect the amount of domaphen bromide that remains in the solution expressed as a percentage of the total amount of domaphen bromide. Inhibition % is recorded in Table 5 corresponding to a soaking time of 24 hours. This completed the first test cycle. The lenses removed during the first soaking cycle were placed in six fresh vials containing two 3 ml portions of solutions 10-12 to commence the second 24 hour soaking cycle. Care was taken to make sure that the solution the lens is soaked in during the second cycle is identical to the solution in the first cycle. Thus, each pair of lenses is soaked in concentrations of Solutions 10-12 identical to the concentration that the lens was soaked in during the first soak cycle. After 24 hours, the lenses are removed. The solutions are tested to determine the concentration domaphen bromide in solution. The inhibition % is calculated and recorded in Table 5 corresponding to 48 hour soak time. The lenses were again soaked for a third and fourth soak cycle. The domaphen bromide inhibition % was recorded after the third and fourth soak cycle and recorded in Table 5 corresponding to the 72 hour and 96 hour soak times, respectively.

[5] = Loading time by soaking commercial contact lenses in 3 ml contact cases; conditions: most of buffer system
Procedure: The loading time for most of buffer system is about 12-24 hours by soaking commercial contact lenses inside the 3 ml contact cases with a certain concentration of domaphen bromide solution.

- Inhibition % in 25 ppm Domiphen Bromide ([1]; soaking time 24 hours): 21.85%
- Inhibition % in 25 ppm Domiphen Bromide ([1]; soaking time 48 hours): 36.68% and 35.57%
- Inhibition % in 25 ppm Domiphen Bromide ([1]; soaking time 72 hours): 33.41% and 33.18%
- Inhibition % in 25 ppm Domiphen Bromide ([1]; soaking time 96 hours): 31.54% and 39.03%
- Inhibition % in 50 ppm Domiphen Bromide ([1]; soaking time 24 hours): 29.80% and 29.88%
- Inhibition % in 50 ppm Domiphen Bromide ([1]; soaking time 48 hours): 36.31% and 32.62%
- Inhibition % in 50 ppm Domiphen Bromide ([1]; soaking time 72 hours): 31.35% and 37.25%
- Inhibition % in 50 ppm Domiphen Bromide ([1]; soaking time 96 hours): 28.30% and 37.79%
- Inhibition % in 100 ppm Domiphen Bromide ([1]; soaking time 24 hours): 14.68% and 17.15%
- Inhibition % in 100 ppm Domiphen Bromide ([1]; soaking time 48 hours): 19.08% and 15.10%
- Inhibition % in 100 ppm Domiphen Bromide ([1]; soaking time 72 hours): 12.02% and 18.58%
- Inhibition % in 100 ppm Domiphen Bromide ([1]; soaking time 96 hours): 14.11% and 20.21%
- loading percentage (100% minus Inhibition%) ([1]; borate buffer, as high as): 70-80%
- Domiphen bromide remaining in solution (% of total) ([2]; 25 ppm (Solution 4), soaking time 24 hours): 78.59% and 75.76%
- Domiphen bromide remaining in solution (% of total) ([2]; 25 ppm (Solution 4), soaking time 48 hours): 57.91% and 62.72%
- Domiphen bromide remaining in solution (% of total) ([2]; 25 ppm (Solution 4), soaking time 72 hours): 59.19% and 53.50%
- Domiphen bromide remaining in solution (% of total) ([2]; 25 ppm (Solution 4), soaking time 96 hours): 55.13% and 52.65%
- Domiphen bromide remaining in solution (% of total) ([2]; 50 ppm (Solution 5), soaking time 24 hours): 73.59% and 67.65%
- Domiphen bromide remaining in solution (% of total) ([2]; 50 ppm (Solution 5), soaking time 48 hours): 68.18% and 66.35%
- Domiphen bromide remaining in solution (% of total) ([2]; 50 ppm (Solution 5), soaking time 72 hours): 58.25% and 56.17%
- Domiphen bromide remaining in solution (% of total) ([2]; 50 ppm (Solution 5), soaking time 96 hours): 80.84% and 81.31%
- Domiphen bromide remaining in solution (% of total) ([2]; 100 ppm (Solution 6), soaking time 24 hours): 68.39% and 63.58%
- Domiphen bromide remaining in solution (% of total) ([2]; 100 ppm (Solution 6), soaking time 48 hours): 65.50% and 63.71%
- Domiphen bromide remaining in solution (% of total) ([2]; 100 ppm (Solution 6), soaking time 72 hours): 56.54% and 58.19%
- Domiphen bromide remaining in solution (% of total) ([2]; 100 ppm (Solution 6), soaking time 96 hours): 53.91% and 59.25%
- Inhibition % in 25 ppm Domiphen Bromide ([3]; soaking time 24 hours): 43.92% and 51.40%
- Inhibition % in 25 ppm Domiphen Bromide ([3]; soaking time 48 hours): 50.19% and 51.75%
- Inhibition % in 25 ppm Domiphen Bromide ([3]; soaking time 72 hours): 52.34% and 47.54%
- Inhibition % in 25 ppm Domiphen Bromide ([3]; soaking time 96 hours): 41.31% and 34.37%
- Inhibition % in 50 ppm Domiphen Bromide ([3]; soaking time 24 hours): 47.12% and 49.78%
- Inhibition % in 50 ppm Domiphen Bromide ([3]; soaking time 48 hours): 49.51% and 49.86%
- Inhibition % in 50 ppm Domiphen Bromide ([3]; soaking time 72 hours): 46.67% and 48.35%
- Inhibition % in 50 ppm Domiphen Bromide ([3]; soaking time 96 hours): 34.47% and 37.30%
- Inhibition % in 100 ppm Domiphen Bromide ([3]; soaking time 24 hours): 48.87% and 47.95%
- Inhibition % in 100 ppm Domiphen Bromide ([3]; soaking time 48 hours): 46.77% and 47.52%
- Inhibition % in 100 ppm Domiphen Bromide ([3]; soaking time 72 hours): 43.55% and 45.54%
- Inhibition % in 100 ppm Domiphen Bromide ([3]; soaking time 96 hours): 34.67% and 37.15%
- Domiphen bromide remaining in solution (%) ([4]; 25 ppm (Solution 10), soaking time 24 hours): 63.20% and 75.66%
- Domiphen bromide remaining in solution (%) ([4]; 25 ppm (Solution 10), soaking time 48 hours): 71.57% and 73.25%
- Domiphen bromide remaining in solution (%) ([4]; 25 ppm (Solution 10), soaking time 72 hours): 64.34% and 76.59%
- Domiphen bromide remaining in solution (%) ([4]; 25 ppm (Solution 10), soaking time 96 hours): 59.17% and 64.89%
- Domiphen bromide remaining in solution (%) ([4]; 50 ppm (Solution 11), soaking time 24 hours): 76.51% and 80.02%
- Domiphen bromide remaining in solution (%) ([4]; 50 ppm (Solution 11), soaking time 48 hours): 78.39% and 72.39%
- Domiphen bromide remaining in solution (%) ([4]; 50 ppm (Solution 11), soaking time 72 hours): 67.91% and 77.42%
- Domiphen bromide remaining in solution (%) ([4]; 50 ppm (Solution 11), soaking time 96 hours): 59.28% and 69.87%
- Domiphen bromide remaining in solution (%) ([4]; 100 ppm (Solution 12), soaking time 24 hours): 75.59% and 77.95%
- Domiphen bromide remaining in solution (%) ([4]; 100 ppm (Solution 12), soaking time 48 hours): 79.63% and 70.90%
- Domiphen bromide remaining in solution (%) ([4]; 100 ppm (Solution 12), soaking time 72 hours): 71.04% and 81.39%
- Domiphen bromide remaining in solution (%) ([4]; 100 ppm (Solution 12), soaking time 96 hours): 62.97% and 74.47%
- loading time [5]: 12 to 24 h
SMILES: CCCCCCCCCCCC[N+](C)(C)CCOc1ccccc1 [Domiphen Bromide]
